# Like-named read-outs stand apart in the source and are kept apart here. Marks after values point to notes of the source that are not given here.
# How the values were obtained:
# rats [1] = test: 28-day repeated dose study in rats with mass spectrometry-based plasma metabolite profiling (GC-MS, LC-MS, SPE-LC-MS); treatment ratios versus control; conditions: plasma; for Glutamate, treatment ratio versus control / Lysophosphatidylcholine (C20:4), treatment ratio versus control / Malate, treatment ratio versus control: Table 1d diuretic effect
# rats [2] = conditions: rat, in vivo
# [3] = female rats, day 14, high dose, Table 2a glomerular-tubular defect
# [4] = female rats, day 14, high dose, Table 2b glomerular-tubular defect
# [5] = female rats, day 28, high dose, Table 2a glomerular-tubular defect
# [6] = female rats, day 28, high dose, Table 2b glomerular-tubular defect
# [7] = male rats, day 7, high dose, Table 2d glomerular-tubular defect
# [8] = male rats, day 14, high dose, Table 2c glomerular-tubular defect
# [9] = male rats, day 14, high dose, Table 2d glomerular-tubular defect
# [10] = male rats, day 28, high dose, Table 2c glomerular-tubular defect
# [11] = male rats, day 28, high dose, Table 2d glomerular-tubular defect
# [12] = male rats, day 7, high dose, Table 1c diuretic effect
# [13] = male rats, day 14, high dose, Table 1c diuretic effect
# [14] = male rats, day 28, high dose, Table 1c diuretic effect
# [15] = female rats, day 28, high dose, Table 1a diuretic effect
# [16] = female rats, day 28, high dose, Table 1b diuretic effect
# [17] = female rats, day 28, high dose, Table 5a tubular necrosis
# [18] = female rats, day 28, high dose, Table 5b tubular necrosis
smiles,measurement,setting,value
CC(C)(S)[C@@H](N)C(=O)O [Penicillamine],"3-Hydroxyindole, treatment ratio versus control",rats [1]; [3],0.87^
same,"3-Indoxylsulfate, treatment ratio versus control",rats [1]; [3],0.93^
same,"Creatinine, treatment ratio versus control",rats [1]; [3],1.69 *
same,"Elaidic acid (C18:trans[9]1), treatment ratio versus control",rats [1]; [3],1.2
same,"Adrenaline (Epinephrine), treatment ratio versus control",rats [1]; [4],0.55 *
same,"Glucosamine, treatment ratio versus control",rats [1]; [4],0.75^
same,"Mannosamine, treatment ratio versus control",rats [1]; [4],0.64 *
same,"3-Hydroxyindole, treatment ratio versus control",rats [1]; [5],1.53 *
same,"Elaidic acid (C18:trans[9]1), treatment ratio versus control",rats [1]; [5],1.35 *
same,"Glucosamine, treatment ratio versus control",rats [1]; [6],0.48 *
same,"Histamine, treatment ratio versus control",rats [1]; [6],0.52 *
same,"Mannosamine, treatment ratio versus control",rats [1]; [6],0.5 *
same,"4-Hydroxy-3-methoxyphenylglycol (HMPG), treatment ratio versus control",rats [1]; [7],0.91 *
same,"Cysteine, treatment ratio versus control",rats [1]; [7],0.46 *
same,"Isopalmitic acid (C16:0), treatment ratio versus control",rats [1]; [7],0.75 *
same,"Metanephrine, treatment ratio versus control",rats [1]; [7],0.83 *
same,"Normetanephrine, treatment ratio versus control",rats [1]; [7],0.79 *
same,"Creatine, treatment ratio versus control",rats [1]; [8],1.35 *
same,"Creatinine, treatment ratio versus control",rats [1]; [8],1.8 *
same,"Threonic acid, treatment ratio versus control",rats [1]; [8],1.4 *
same,"4-Hydroxy-3-methoxyphenylglycol (HMPG), treatment ratio versus control",rats [1]; [9],0.84 *
same,"Cysteine, treatment ratio versus control",rats [1]; [9],0.51 *
same,"Metanephrine, treatment ratio versus control",rats [1]; [9],0.43 *
same,"Normetanephrine, treatment ratio versus control",rats [1]; [9],0.66 *
same,"Creatine, treatment ratio versus control",rats [1]; [10],1.27 *
same,"Glycerol-3-phosphate, polar fraction, treatment ratio versus control",rats [1]; [10],1.4 *
same,"Lysophosphatidylcholine (C18:2), treatment ratio versus control",rats [1]; [10],1.1
same,"Threonic acid, treatment ratio versus control",rats [1]; [10],1.7 *
same,"4-Hydroxy-3-methoxyphenylglycol (HMPG), treatment ratio versus control",rats [1]; [11],0.79 *
same,"Cysteine, treatment ratio versus control",rats [1]; [11],0.85 *
same,"Metanephrine, treatment ratio versus control",rats [1]; [11],0.68 *
same,"Normetanephrine, treatment ratio versus control",rats [1]; [11],0.68 *
same,"3-Indoxylsulfate, treatment ratio versus control",rats [2],1.41 *
same,"Adrenaline (Epinephrine), treatment ratio versus control",rats [2],1.14^
same,"Histamine, treatment ratio versus control",rats [2],1.36^
same,"Threonic acid, treatment ratio versus control",rats [2],1.47 *
Cn1cnc2c1c(=O)[nH]c(=O)n2C [Theobromine],"Ceramide (d18:1, C24:0), treatment ratio versus control",rats [1]; [12],0.84^
same,"Choline plasmalogen No 02, treatment ratio versus control",rats [1]; [12],1.38 *
same,"Glutamate, treatment ratio versus control","rats [1]; male rats, day 7, high dose",0.74 *
same,"Lysophosphatidylcholine (C20:4), treatment ratio versus control","rats [1]; male rats, day 7, high dose",0.8 *
same,"Ceramide (d18:1, C24:0), treatment ratio versus control",rats [1]; [13],1.35 *
same,"Choline plasmalogen No 03, treatment ratio versus control",rats [1]; [13],1.1
same,"Threonine, treatment ratio versus control",rats [1]; [13],1.53 *
same,"Glutamate, treatment ratio versus control","rats [1]; male rats, day 14, high dose",0.94 *
same,"Lysophosphatidylcholine (C20:4), treatment ratio versus control","rats [1]; male rats, day 14, high dose",0.86 *
same,"Ceramide (d18:1, C24:1), treatment ratio versus control",rats [1]; [14],1.52^
same,"Choline plasmalogen No 03, treatment ratio versus control",rats [1]; [14],1.1 *
same,"Sphingomyelin (d18:2, C16:0), treatment ratio versus control",rats [1]; [14],1.9 *
same,"Glutamate, treatment ratio versus control","rats [1]; male rats, day 28, high dose",0.87 *
same,"Lysophosphatidylcholine (C20:4), treatment ratio versus control","rats [1]; male rats, day 28, high dose",0.8 *
same,"Ceramide (d18:1, C24:0), treatment ratio versus control",rats [2],1.33 *
same,"Choline plasmalogen No 03, treatment ratio versus control",rats [2],1.08 *
Cn1c(=O)c2[nH]cnc2n(C)c1=O [Theophylline],"Pantothenic acid, treatment ratio versus control",rats [1]; [15],1.72 *
same,"Proline, treatment ratio versus control",rats [1]; [15],1.57
same,"Threonic acid, treatment ratio versus control",rats [1]; [15],1.14
same,"trans-4-Hydroxyproline, treatment ratio versus control",rats [1]; [15],1.91 *
same,"18-Hydroxy-11-deoxycorticosterone, treatment ratio versus control",rats [1]; [16],0.5 *
same,"Creatinine, treatment ratio versus control",rats [1]; [16],0.8 *
same,"Hippuric acid, treatment ratio versus control",rats [1]; [16],0.28 *
same,"Ceramide (d18:1, C24:0), treatment ratio versus control",rats [1]; [12],0.92^
same,"Ceramide (d18:1, C24:1), treatment ratio versus control",rats [1]; [12],0.75^
same,"Glutamate, treatment ratio versus control","rats [1]; male rats, day 7, high dose",0.64 *
same,"Lysophosphatidylcholine (C20:4), treatment ratio versus control","rats [1]; male rats, day 7, high dose",0.71 *
same,"Malate, treatment ratio versus control","rats [1]; male rats, day 7, high dose",0.76 *
same,"Ceramide (d18:1, C24:0), treatment ratio versus control",rats [1]; [13],1.56 *
same,"Ceramide (d18:1, C24:1), treatment ratio versus control",rats [1]; [13],1.94 *
same,"Lysophosphatidylcholine (C20:4), treatment ratio versus control","rats [1]; male rats, day 14, high dose",0.87 *
same,"Malate, treatment ratio versus control","rats [1]; male rats, day 14, high dose",0.9
same,"Ceramide (d18:1, C24:0), treatment ratio versus control",rats [1]; [14],0.95
same,"Ceramide (d18:1, C24:1), treatment ratio versus control",rats [1]; [14],1.17
same,"Choline plasmalogen No 02, treatment ratio versus control",rats [1]; [14],1
same,"Choline plasmalogen No 03, treatment ratio versus control",rats [1]; [14],1.03
same,"Glutamate, treatment ratio versus control","rats [1]; male rats, day 28, high dose",0.74 *
same,"Lysophosphatidylcholine (C20:4), treatment ratio versus control","rats [1]; male rats, day 28, high dose",0.81 *
same,"Malate, treatment ratio versus control","rats [1]; male rats, day 28, high dose",0.72 *
same,"Glutamate, treatment ratio versus control",rats [2],1.04^
same,"Glycine, treatment ratio versus control",rats [2],1.32 *
same,"Histidine, treatment ratio versus control",rats [2],1.25 *
same,"Valine, treatment ratio versus control",rats [2],1.29 *
"NC[C@H]1O[C@H](O[C@H]2[C@H](O)[C@@H](O[C@H]3O[C@H](CO)[C@@H](O)[C@H](N)[C@H]3O)[C@H](N)C[C@@H]2N)[C@H](N)C[C@@H]1O [Tobramycin s.c., Tobramycin]","Docosahexaenoic acid (C22:cis[4,7,10,13,16,19]6), treatment ratio versus control",rats [1]; [17],1.05 *
same,"Docosapentaenoic acid (C22:cis[7,10,13,16,19]5), treatment ratio versus control",rats [1]; [17],1.56 *
same,"Eicosanoic acid (C20:0), treatment ratio versus control",rats [1]; [17],1.05
same,"Glycerol, lipid fraction, treatment ratio versus control",rats [1]; [17],1.2 *
same,"Phosphate (inorganic and organic phosphates), treatment ratio versus control",rats [1]; [17],1.3 *
same,"Hippuric acid, treatment ratio versus control",rats [1]; [18],0.14 *
same,"Lactate, treatment ratio versus control",rats [1]; [18],0.64 *
same,"Leucine, treatment ratio versus control",rats [2],1.26 *

# Reference: patent publication US20150011423A1, “MEANS AND METHODS FOR ASSESSING KIDNEY TOXICITY” (BASF SE, priority 2011, published 2015)
